Structures are written as SMILES.

Assay in all cases: FLIPR calcium assay, cells with promiscuous G protein transfected with bitter receptor cDNA
Holding throughout (assay type): cell-based
Common to all, as to conditions: responsive if cellular response of >10% over baseline, Fluo4-AM

In assay [1] the target is T1, T2R receptor SEQ ID NO: 1 (S1) (Homo sapiens, UniProt Q9NYW7).
T1 construct: expressed in transfected cells; host or cells: cells expressing a promiscuous G protein (e.g., G16g44)
T1 sequence (Q9NYW7 1-299): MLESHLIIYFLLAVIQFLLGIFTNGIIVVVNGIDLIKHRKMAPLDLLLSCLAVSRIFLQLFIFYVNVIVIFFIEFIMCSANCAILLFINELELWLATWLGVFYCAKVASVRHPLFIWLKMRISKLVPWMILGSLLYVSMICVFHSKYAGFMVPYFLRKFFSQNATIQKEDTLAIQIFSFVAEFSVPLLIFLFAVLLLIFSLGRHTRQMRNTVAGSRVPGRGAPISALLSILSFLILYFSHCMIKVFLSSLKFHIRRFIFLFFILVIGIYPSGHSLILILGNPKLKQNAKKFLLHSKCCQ
The protocol: (§1) Cells expressing a promiscuous G protein (e.g., G16g44) were transfected with vectors encoding 22 functional bitter receptor cDNAs, with one receptor per transfection. The cells were transfected directly in 384-well format high-density plates and incubated for 28 hours. Later, cells were loaded with the Ca-specific dye Fluo4-AM. After an incubation of 60 minutes, excess dye is washed off, and cells are stimulated with respective bitter agonists while simultaneously recording changes in intracellular fluorescence using a FLIPR instrument.
(§2) The above protocol was carried out using 94 different active pharmaceutical ingredients (APIs) that span a wide range of different APIs having a diversity of chemical structures. A particular T2R receptor was identified as being responsive to a particular API if it triggered a cellular response of >10% over baseline.

Assay [2] deals with T2, T2R receptor SEQ ID NO: 3 (S3) (Homo sapiens, UniProt Q9NYW0, T156M).
T2 construct: expressed in transfected cells; host or cells: cells expressing a promiscuous G protein (e.g., G16g44)
T2 sequence (Q9NYW0 1-307 T156M): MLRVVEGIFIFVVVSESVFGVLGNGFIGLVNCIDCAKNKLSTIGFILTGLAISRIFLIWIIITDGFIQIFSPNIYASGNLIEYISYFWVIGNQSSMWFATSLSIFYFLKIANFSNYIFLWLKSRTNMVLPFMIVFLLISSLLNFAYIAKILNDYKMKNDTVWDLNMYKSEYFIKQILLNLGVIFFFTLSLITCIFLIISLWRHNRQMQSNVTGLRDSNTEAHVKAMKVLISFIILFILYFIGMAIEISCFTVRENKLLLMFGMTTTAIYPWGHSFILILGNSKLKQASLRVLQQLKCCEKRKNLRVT
The protocol: as §1, §2

The target of assay [3] is T3, T2R receptor SEQ ID NO: 4 (S4) (Homo sapiens, UniProt Q9NYV8).
T3 construct: expressed in transfected cells; host or cells: cells expressing a promiscuous G protein (e.g., G16g44)
T3 sequence (Q9NYV8 1-317): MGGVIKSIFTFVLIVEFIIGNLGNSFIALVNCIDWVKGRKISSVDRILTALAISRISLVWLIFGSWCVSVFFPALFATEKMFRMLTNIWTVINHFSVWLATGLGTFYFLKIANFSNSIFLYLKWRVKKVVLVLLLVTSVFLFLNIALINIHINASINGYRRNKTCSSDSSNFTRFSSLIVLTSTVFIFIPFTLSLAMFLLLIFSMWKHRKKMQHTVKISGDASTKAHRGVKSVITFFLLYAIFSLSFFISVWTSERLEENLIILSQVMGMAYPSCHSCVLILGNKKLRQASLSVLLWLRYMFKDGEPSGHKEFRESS
The protocol: as §1, §2

Assay [4] addresses T4, T2R receptor SEQ ID NO: 5 (S5) (Homo sapiens, UniProt P59534).
T4 construct: expressed in transfected cells; host or cells: cells expressing a promiscuous G protein (e.g., G16g44)
T4 sequence (P59534 18-338): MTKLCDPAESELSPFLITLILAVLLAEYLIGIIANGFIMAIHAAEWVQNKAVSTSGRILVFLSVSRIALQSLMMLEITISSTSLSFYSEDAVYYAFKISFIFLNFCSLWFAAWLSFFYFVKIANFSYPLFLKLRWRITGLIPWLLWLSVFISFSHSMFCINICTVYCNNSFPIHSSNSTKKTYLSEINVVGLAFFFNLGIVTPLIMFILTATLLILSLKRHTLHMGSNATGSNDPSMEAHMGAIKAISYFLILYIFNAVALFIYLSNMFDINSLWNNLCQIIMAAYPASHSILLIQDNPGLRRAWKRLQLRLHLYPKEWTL
The protocol: as §1, §2

Assay [5] addresses T5, T2R receptor SEQ ID NO: 6 (S6) (Homo sapiens, UniProt P59540).
T5 construct: expressed in transfected cells; host or cells: cells expressing a promiscuous G protein (e.g., G16g44)
T5 sequence (P59540 1-309): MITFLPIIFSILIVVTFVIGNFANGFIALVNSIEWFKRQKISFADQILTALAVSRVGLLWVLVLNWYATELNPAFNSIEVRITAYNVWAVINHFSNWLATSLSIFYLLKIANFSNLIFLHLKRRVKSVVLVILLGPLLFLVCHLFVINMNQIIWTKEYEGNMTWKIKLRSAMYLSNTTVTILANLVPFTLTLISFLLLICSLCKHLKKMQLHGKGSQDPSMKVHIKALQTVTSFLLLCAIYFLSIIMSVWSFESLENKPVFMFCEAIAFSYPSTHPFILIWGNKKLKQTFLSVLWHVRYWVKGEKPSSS
The protocol: as §1, §2

Turning to `COc1ccc2c(c1)[C@]13CCCC[C@@H]1[C@H](C2)N(C)CC3` [Dextromethorphan], the “S1 positive response of T2R receptor to API” value (“S1 positive response” below) in assay [1] is on record as “+ (a “+” to indicate whether a particular T2R receptor showed a positive response to a particular API)”. For the same compound, the “S3 positive response of T2R receptor to API” value (from here on “S3 positive response”) in assay [2] is listed as “+ (a “+” to indicate whether a particular T2R receptor showed a positive response to a particular API)”. Also, in assay [3], the “S4 positive response of T2R receptor to API” value (shortened to “S4 positive response”) is recorded as “+ (a “+” to indicate whether a particular T2R receptor showed a positive response to a particular API)”. In assay [4], the “S5 positive response of T2R receptor to API” value (“S5 positive response” below) is given as “+ (a “+” to indicate whether a particular T2R receptor showed a positive response to a particular API)”. The “S6 positive response of T2R receptor to API” value (from here on “S6 positive response”) in assay [5] is on record as “+ (a “+” to indicate whether a particular T2R receptor showed a positive response to a particular API)”.
For the compound `CC[C@H]1OC(=O)[C@H](C)[C@@H](O[C@H]2C[C@@](C)(OC)[C@@H](O)[C@H](C)O2)[C@H](C)[C@@H](O[C@@H]2O[C@H](C)C[C@H](N(C)C)[C@H]2O)[C@](C)(OC)C[C@@H](C)C(=O)[C@H](C)[C@@H](O)[C@]1(C)O` [Clarithromycin], the “S1 positive response” value in assay [1] is listed as “+ (a “+” to indicate whether a particular T2R receptor showed a positive response to a particular API)”. Also, in assay [2], the “S3 positive response” value is on record as “+ (a “+” to indicate whether a particular T2R receptor showed a positive response to a particular API)”. The “S5 positive response” value in assay [4] is listed as “+ (a “+” to indicate whether a particular T2R receptor showed a positive response to a particular API)”.
As for `CC(C)(C)NC[C@H](O)COc1nsnc1N1CCOCC1` [Timolol], the “S1 positive response” value in assay [1] was “+ (a “+” to indicate whether a particular T2R receptor showed a positive response to a particular API)”. Also, in assay [2], the “S3 positive response” value is “+ (a “+” to indicate whether a particular T2R receptor showed a positive response to a particular API)”. Moreover, the “S5 positive response” value in assay [4] is “+ (a “+” to indicate whether a particular T2R receptor showed a positive response to a particular API)”. The “S6 positive response” value in assay [5] is “+ (a “+” to indicate whether a particular T2R receptor showed a positive response to a particular API)”.
For the compound `CC(=O)CC(c1ccccc1)c1c(O)c2ccccc2oc1=O` (stereo not shown) [Warfarin], the “S1 positive response” value in assay [1] is “+ (a “+” to indicate whether a particular T2R receptor showed a positive response to a particular API)”. The “S4 positive response” value in assay [3] is on record as “+ (a “+” to indicate whether a particular T2R receptor showed a positive response to a particular API)”. The “S5 positive response” value in assay [4] is “+ (a “+” to indicate whether a particular T2R receptor showed a positive response to a particular API)”.
Take `CC[N+](C)(C)c1cccc(O)c1` [Edrophonium]: the “S1 positive response” value in assay [1] was “+ (a “+” to indicate whether a particular T2R receptor showed a positive response to a particular API)”. Also, the “S5 positive response” value in assay [4] is listed as “+ (a “+” to indicate whether a particular T2R receptor showed a positive response to a particular API)”. The “S6 positive response” value in assay [5] is listed as “+ (a “+” to indicate whether a particular T2R receptor showed a positive response to a particular API)”.
With `CN(C)CCC(c1ccc(Cl)cc1)c1ccccn1` (stereo not shown) [Chlorpheniramine], the “S1 positive response” value in assay [1] was “+ (a “+” to indicate whether a particular T2R receptor showed a positive response to a particular API)”. Also, the “S3 positive response” value in assay [2] was “+ (a “+” to indicate whether a particular T2R receptor showed a positive response to a particular API)”. In assay [3], the “S4 positive response” value is “+ (a “+” to indicate whether a particular T2R receptor showed a positive response to a particular API)”. Besides, the “S5 positive response” value in assay [4] is on record as “+ (a “+” to indicate whether a particular T2R receptor showed a positive response to a particular API)”. Further, the “S6 positive response” value in assay [5] is “+ (a “+” to indicate whether a particular T2R receptor showed a positive response to a particular API)”.
In the case of `N=C(NCCCCCCNC(=N)NC(=N)Nc1ccc(Cl)cc1)NC(=N)Nc1ccc(Cl)cc1.O=C(O)[C@H](O)[C@@H](O)[C@H](O)[C@H](O)CO.O=C(O)[C@H](O)[C@@H](O)[C@H](O)[C@H](O)CO` [Chlorhexidine Digluconate], the “S1 positive response” value in assay [1] was “+ (a “+” to indicate whether a particular T2R receptor showed a positive response to a particular API)”. In addition, the “S4 positive response” value in assay [3] is recorded as “+ (a “+” to indicate whether a particular T2R receptor showed a positive response to a particular API)”. Moreover, in assay [4], the “S5 positive response” value is listed as “+ (a “+” to indicate whether a particular T2R receptor showed a positive response to a particular API)”. Further, in assay [5], the “S6 positive response” value was “+ (a “+” to indicate whether a particular T2R receptor showed a positive response to a particular API)”.
For the compound `CN(C)CCC(c1ccc(Br)cc1)c1ccccn1` (stereo not shown) [Brompheniramine], the “S1 positive response” value in assay [1] is listed as “+ (a “+” to indicate whether a particular T2R receptor showed a positive response to a particular API)”. Further, the “S3 positive response” value in assay [2] is recorded as “+ (a “+” to indicate whether a particular T2R receptor showed a positive response to a particular API)”. In addition, in assay [3], the “S4 positive response” value is listed as “+ (a “+” to indicate whether a particular T2R receptor showed a positive response to a particular API)”. Moreover, in assay [4], the “S5 positive response” value is recorded as “+ (a “+” to indicate whether a particular T2R receptor showed a positive response to a particular API)”. In addition, in assay [5], the “S6 positive response” value is listed as “+ (a “+” to indicate whether a particular T2R receptor showed a positive response to a particular API)”.
As for `OC(CCCN1CCCCC1)(c1ccccc1)c1ccccc1` [Diphenidol], the “S1 positive response” value in assay [1] is on record as “+ (a “+” to indicate whether a particular T2R receptor showed a positive response to a particular API)”. In assay [2], the “S3 positive response” value is listed as “+ (a “+” to indicate whether a particular T2R receptor showed a positive response to a particular API)”. The “S4 positive response” value in assay [3] was “+ (a “+” to indicate whether a particular T2R receptor showed a positive response to a particular API)”. In addition, the “S5 positive response” value in assay [4] was “+ (a “+” to indicate whether a particular T2R receptor showed a positive response to a particular API)”. Besides, the “S6 positive response” value in assay [5] is listed as “+ (a “+” to indicate whether a particular T2R receptor showed a positive response to a particular API)”.

Source of the values: patent US20250271426A1, “REDUCTION OF BITTER TASTE OF ACTIVE PHARMACEUTICAL INGREDIENTS AND RELATED ASSAYS AND SCREENING METHODS” (Firmenich Incorporated, priority 2022, published 2025).
